Entries after “also recorded” stand apart in the source; their conditions may differ. Like-named read-outs stand apart in the source and are kept apart here.
How the values were obtained:
[1] = test system: β-cells (dispersed rat islet cells); experiment: primary islet β-cell replication assay (PDX-1/ki-67 co-staining, automated imaging); type: cell-based; conditions: for EC50: Rattus norvegicus; for increase of β-cell replication: 24 h, 5-IT 2 μM, GLP-1 and Ex-4 20 nM and 4 nM, normalized to DMSO
Protocol: Rat islets were isolated as previously described in Gotoh M, Maki T, Kiyoizumi T, Satomi S, Monaco A P: An improved method for isolation of mouse pancreatic islets. Transplantation 40:437-438, 1985, contents of which are herein incorporated by reference in their entirety. Isolated islets were cultured overnight in a tissue culture incubator. The following morning, islets were trypsinized into cellular clusters of 1-3 cells, re-suspended in islet media (Mediatech 99-786-CV; 10% FBS serum (Valley Biomedial BS3033); 8.3 mM Glucose (Sigma G7528); 1× Penicillin/Streptomycin (Invitrogen 15070-063); 1× Glutamax (Invitrogen 35050-079)) and plated into the wells of a 96-well plate (Sigma CLS3904) that had been coated with 804G (a rat bladder carcinoma cell line) conditioned media. The cellular plating density was 60 k cells/well and greater than 95% viability was confirmed at the time of plating. […] For screening, compounds were tested at 1 uM concentration in duplicate. After 24-hours of compound treatment, cells were fixed with fresh 4% PFA (Electron Microscopy Services 15710) for 20 minutes and washed with PBS (VWR 45000-446). Antigen retrieval was performed by heating the cells to 90 degrees Celsius in 0.1 mM EDTA (Ambion AM9260G) in PBS. Cells were then washed and permeabalized with PBS/0.3% Triton X-100 (J.T.Baker X198-07) for 15 minutes. Immunocytochemical staining was then performed as follows. Antigen blocking was performed with 5% normal donkey serum (Jackson ImmunoResearch 017-000-121) in PBS for an hour. Staining was performed by overnight incubation with primary antibody at 4 degrees Celsius. For the primary screen, PDX-1 antibody (R&D AF2419) was used to reveal beta-cells and ki-67 antibody (BD Bioscience 556003) to visualize proliferating cells. Without wishing to be bound by theory, the failure of prior beta-cell replication screens is primarily a consequence of using a cytoplasmic marker (Insulin) as the β-cell identifier. The use of a cytoplasmic marker prevents accurate attribution of nuclear replication to a specific cell identity i.e., in dense culture it is impossible to attribute a cytoplasm to a specific nucleus given the proximity to multiple nuclei. Additional Immunohistochemistry antibodies included Phosphohistone 3 (Millipore 06-570), Insulin (Dako A0564), Glucagon (Millipore 4031-01F) and Vimentin (Millipore ab5733). For western blotting anti-bodies included ADK (Abcam ab38010, ab64825) and RAN (BD Bioscience 610340) as a loading control.
Once compound-treated islet cells were stained, β-cell replication was assessed via automated image acquisition and analysis using a Cellomics ArrayScanVTI. The acquisition thresholds/parameters were established such that the computer-based calls of replication events were consistent with human-based calls. The parameters used were directed at the identification of (1) PDX-1+ cells and (2) ki-67 positive staining within the PDX-1 positive area. The algorithm was a three step process. First the nuclear area was predicted by the software based upon the expected PDX-1 staining pattern. Second PDX-1 positive cells (selected objects) were counted based upon the average staining intensity within the predicted nuclear area (Note: total signal intensity was essentially equal in quality but was not typically used). Third, the number of PDX-1 positive cells (selected objects) that simultaneously were Ki-67 positive was determined by determining the average fluorescence intensity of ki-67 staining within the predicted nuclear area (again, total intensity was also occasionally used with equal efficacy). The specific thresholds (fluorescence intensities) varied from experiment to experiment. In general, the basal replication rate was set at roughly 1% i.e., the algorithm was varied until 1% of DMSO treated PDX+ cells were reported to be double positive for PDX-1 and ki67. […]

murine β-cells = experiment: murine islet β-cell replication (PDX-1/ki-67); type: cell-based, mouse; conditions: FIG. 13b top
Protocol: (§1) Rat and mouse islets were isolated as previously described. (M. Gotoh, et al., Transplantation 43, 725-730 (1987)) All animal work was approved and carried out in accordance with our institutional animal care and use committee. Porcine islets were provided by VitaCyte (Indianapolis, Id.). Islets were incubated (37° C., 5% CO2) overnight in islet media (Mediatech 99-786-CV; 10% FBS serum (Valley Biomedial BS3033); 8.3 mM Glucose (Sigma G7528); 1× Penicillin/Streptomycin (Invitrogen 15070-063); 1× Glutamax (Invitrogen 35050-079)). The following morning, islets were trypsinized into cellular clusters of 1-3 cells, re-suspended in islet media and plated into the wells of a 96-well plate (Sigma CLS3904) that had been coated with 804G (a rat bladder carcinoma cell line) conditioned media. The cellular plating density was 60 k cells/well and greater than 95% viability was confirmed at the time of plating. The islet cells were allowed 48-hours to adhere at which time the media was changed (as above, except 2% serum, 5 mM glucose) and the cells were compound treated. For screening, compounds were tested at 1 μM and 10 μM concentrations in duplicate on a single occasion. After 24-hours of compound treatment, cells were fixed with fresh 4% PFA. Antigen retrieval was performed by heating the cells to 90 degrees Celsius in 0.1 M EDTA in distilled water. […]

islet β-cells = experiment: in vivo β-cell replication (BRDU incorporation); design: species or system mouse; conditions: mice
Description: 24-hours post treatment, animals were sacrificed and the pancreas was fixed, sectioned and stained for PDX-1 and BRDU (Amaersham RPN202). Every fourth section was included in analysis and a minimum of 2000 PDX-1^+ per animal were counted.
(§2) A minority of these cells were not exocrine cells. […] Dividing cells were BRDU^+ (Amaersham RPN202).

porcine β-cells = experiment: porcine islet β-cell replication (PDX-1/ki-67); type: cell-based; conditions: FIG. 13b bottom
Protocol: as §1

exocrine cells = experiment: in vivo exocrine cell replication (BRDU incorporation); design: species or system mouse; conditions: mice, 21 mg/kg, 24 h
Description: as §2

[2] = compared to 5-IT; Zheng et al. 2001; cited from earlier work

Compound: Nc1ncnc2c1c(I)cn2[C@H]1CC[C@@H](CO)O1 [7-Iodo-2,3-dideoxy-7-deazadenosine, 7-deaza-7-iodo-2′,3′-dideoxyadenosine]
- β-cell replication after treatment with additional ADK-Is ([1]; FIG. 17b, 7-Iodo-2,3-dideoxy-7-deazadenosine 20 μM, 10 μM, Aristeromycin 6 μM, 1 μM): increased

Compound: Nc1ncnc2nc(-c3ccc(N4CCOCC4)nc3)cc(-c3cccc(Br)c3)c12 [ABT-702, 5-(3-bromophenyl)-7-(6-morpholinopyridin-3-yl)pyrido[2,3-d]pyrimidin-4-amine]
- induction of β-cell replication, murine islet cells (murine β-cells): induction of β-cell replication similar to that observed for rat islet cells
- % of Ki-67 positive β-cells (PDX-1 and Ki-67 positive cells), dose curve ([1]; A10 0.019-10 uM, B8 0.23-30 uM): increased in a dose dependent manner
- EC50 ([1]; FIG. 13c dose-response curves, read-out: EC50, β-cell proliferation in rat islet cultures): 7 µM
- EC50 ([1]; dose curves FIG. 2a (A10) and FIG. 3 (B8), Ki-67 positive β-cells, read-out: EC50 for β-cell proliferation): 9.1 µM
- in vivo β-cell replication rate, β-cells identified by insulin immunostaining (islet β-cells; separate cohort, FIG. 20): increases
- increase in BRDU incorporation by β-cells in vivo (PDX-1 identified) (islet β-cells; single intraperitoneal injection, 21 mg/kg, 24 h): 2 fold
- induction of β-cell replication, porcine islet cells (porcine β-cells): induction of β-cell replication similar to that observed for rat islet cells
- in vivo replication rate of exocrine cells (exocrine cells): did not increase
- half-life [2]: longer half-life compared to 5-IT

Compound: NC(=O)c1ncn([C@@H]2O[C@H](CO)[C@@H](O)[C@H]2O)c1N [AICAR, 5-aminoimidazole-4-carboxamide ribonucleoside]
- % β-cell replication ([1]; AICAR 3.3 μM): increase

Compound: c1cc(-c2cnn3cc(-c4ccc(OCCN5CCCCC5)cc4)cnc23)ccn1 [Cpd C]
- beta-cell replication with A10 relative to the uninhibited controls ([1]; Cpd C 10 μM): decrease

Compound: Nc1ncnc2c1ncn2[C@@H]1O[C@H](CO)[C@@H](O)[C@H]1O [adenosine]
- effect on % PDX-1 and Ki-67 expressing cells (β-cell proliferation) ([1]; rat islets, adenosine 0.05-1000 uM): little effect; also recorded: no effect

Compound: Exendin-4 [Ex-4]
- increase of β-cell replication [1]: ~1.5 fold

Compound: Glucagon-like peptide-1 [GLP-1]
- increase of β-cell replication [1]: ~1.5 fold

— patent US20130023491A1, “BETA-CELL REPLICATION PROMOTING COMPOUNDS AND METHODS OF THEIR USE” (President and Fellows of Harvard College, priority 2009, published 2013)
